Test results: patent publication US6534524B1, “Indazole compounds and pharmaceutical compositions for inhibiting protein kinases, and methods for their use” (Agouron Pharmaceuticals, Inc., priority 1999, dated 2003)
Where two headings read alike, the source gives them in different places.

What was measured:
[1] = Determination of inhibitor concentration in mouse plasma after intraperitoneal and oral dosing; format: in vivo
Experimental: Blood collection was via ocular bleed at 0.5, 1, 4 hr with the final time point, 7 hour, via intracardiac puncture. The blood was centrifuged to collect plasma, which was then stored at −80° C. until analysis. Samples were prepared for analysis using an internal standard and sodium hydroxide. After vortexing, ethyl acetate was added and mixed for 15-20 minutes at ambient temperature. […] The samples were then analyzed via HPLC or LC-MS. Compound levels were quantitated by generating a standard curve of known compound concentration in mouse plasma.

[2] = Human liver microsome (HLM) assay; format: in vitro ADME; details: human liver microsomes, 5 μM test compound
Experimental: Human Liver Microsome (HLM) Assay Compound metabolism in human liver microsomes was measured by LC-MS analytical assay procedures as follows. […] (3 tubes per test compound-triplicate). […] The samples were then transferred to separate polypropylene microcentrifuge tubes and centrifuged at 14000 g for 10 min. (Fisher Micro […] M0017580). For each replicate (#1-3) at each timepoint (0 and 2 h), an aliquot sample of each test compound was combined into a single HPLC vial insert (6 total samples) for LC-MS analysis, which is described below.

[3] = test system: human umbilical vein endothelial cells (HUVEC); assay: HUVEC proliferation assay (VEGF-stimulated, MTT); format: cell-based; details: Homo sapiens, HUVEC
[4] = target: unphosphorylated VEGF-R2Δ50 (FLVK) (Homo sapiens, UniProt P35968, DEL940-989/E990V); assay: VEGF-R2 coupled spectrophotometric assay, unphosphorylated VEGF-R2Δ50 (FLVK); details: for inhibition at 0.05 µM: read-out: FLVK % inhibition; for Ki: FLVK Ki, Table 1
[5] = PO, 25 mg/kg, vehicle PEG400:H2O pH 2.3 30:70
[6] = female, PO, 25 mg/kg, vehicle PEG400:H2O pH 2.3 30:70, read-out: Cmin (7 hr conc.)
[7] = + albumin, read-out: HUVEC + albumin IC50
[8] = IP, 25 mg/kg, vehicle PEG400:H2O pH 2.3 30:70
[9] = female, IP, 25 mg/kg, vehicle PEG400:H2O pH 2.3 30:70, read-out: Cmin (7 hr conc.)
[10] = IP, 25 mg/kg, vehicle PEG400:H2O pH 2.3 60:40
[11] = PO, 50 mg/kg, vehicle PEG400:H2O pH 2.3 60:40
[12] = female, IP, 25 mg/kg, vehicle PEG400:H2O pH 2.3 60:40, read-out: Cmin (7 hr conc.)
[13] = female, PO, 50 mg/kg, vehicle PEG400:H2O pH 2.3 60:40, read-out: Cmin (7 hr conc.)
[14] = female, PO, 25 mg/kg, vehicle PEG400:H2O pH 2.3 30:70
[15] = PO, 50 mg/kg, vehicle PEG400:H2O pH 2.3 30:70
[16] = female, IP, 25 mg/kg, vehicle PEG400:H2O pH 2.3 30:70
[17] = female, PO, 50 mg/kg, vehicle PEG400:H2O pH 2.3 30:70, read-out: Cmin (7 hr conc.)

Sequence of unphosphorylated VEGF-R2Δ50 (FLVK) (P35968 with tags, fused parts or gaps DEL940-989/E990V limits assumed): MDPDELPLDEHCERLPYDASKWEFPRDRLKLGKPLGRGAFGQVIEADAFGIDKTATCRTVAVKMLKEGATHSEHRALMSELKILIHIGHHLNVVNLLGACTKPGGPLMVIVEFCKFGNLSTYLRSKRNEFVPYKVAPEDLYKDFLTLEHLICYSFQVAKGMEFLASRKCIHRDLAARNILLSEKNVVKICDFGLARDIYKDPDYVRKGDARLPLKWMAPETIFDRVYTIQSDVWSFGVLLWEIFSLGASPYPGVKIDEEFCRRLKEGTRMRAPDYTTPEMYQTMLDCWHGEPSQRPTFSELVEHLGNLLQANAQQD

SMILES: COc1ccc(CNC(=O)c2ccccc2Sc2ccc3c(/C=C/c4ccccn4)n[nH]c3c2)cc1 [Example 35(g)]
- AUClast [1, 5]: 231 ng·h/mL
- plasma half-life (T1/2) [1, 5]: 16.1 h
- concentration at 7 h [1, 6]: 28 ng/mL
- % remain (HLM, 2 h) [2]: 53%

SMILES: Cc1nc(/C=C/c2n[nH]c3cc(C(=O)c4cccc(NC(=O)c5ccccc5)c4)ccc23)cs1 [Example 42(c), 6-(3-Benzanidobenzoyl)-3-E-[2-(2-methylthiazol-4-yl)ethenyl]-1H-indazole]
- IC50 [3, 7]: 1 to 3 nM
- inhibition at 0.05 µM [4]: 95%

SMILES: O=C(NCc1ccco1)c1ccccc1Sc1ccc2c(/C=C/c3ccccn3)n[nH]c2c1 [Example 35(bb), 6-[2-((fur-2-yl)Methylcarbamoyl)phenylsulfanyl]-3-E-[2-(pyridin-2-yl)ethenyl]-1H-indazole]
- % remain (HLM, 2 h) [2]: 8%

SMILES: COc1cc(C(=O)Nc2cccc(C(=O)c3ccc4c(/C=C/c5ccccn5)n[nH]c4c3)c2)cc(Cl)n1 [Example 41(u), 6-[3-((2-Chloro-6-methoxypyridin-4-yl)carboxanido)benzoyl]-3-E-[2-(pyridin-2-yl)ethenyl]-1H-indazole]
- Ki [4]: 0.08 nM
- AUClast [1, 5]: 875 ng·h/mL
- Cmax [1, 5]: 224 ng/mL
- plasma half-life (T1/2) [1, 5]: 5.6 h
- concentration at 7 h [1, 6]: 51 ng/mL

SMILES: O=C(NNC(=O)c1ccccc1Sc1ccc2c(/C=C/c3ccccn3)n[nH]c2c1)c1cccs1 [Example 35(m), 6-[2-((Thien-2-ylhydrazido)carbonyl)phenylsulfanyl]-3-E-[2-(pyridin-2-yl)ethenyl]-1H-indazole]
- Ki [4]: 0.04 nM
- AUClast [1, 8]: 226 ng·h/mL
- plasma half-life (T1/2) [1, 8]: 4.0 h
- AUClast [1, 5]: 10 ng·h/mL
- Cmax [1, 5]: 7 ng/mL
- concentration at 7 h [1, 9]: 17 ng/mL
- concentration at 7 h [1, 6]: 0 ng/mL

SMILES: O=C(N[C@@H]1C[C@H]1c1ccccc1)c1ccccc1Sc1ccc2c(/C=C/c3ccccn3)n[nH]c2c1 (racemic) [Example 34]
- % remain (HLM, 2 h) [2]: 28%

SMILES: O=C(Cc1cc(F)cc(F)c1)Nc1cccc(C(=O)c2ccc3c(/C=C/c4ccccn4)n[nH]c3c2)c1 [Example 41(f), 6-[3-(3,5-Difluorophenylacetamido)benzoyl]-3-E-[2-(pyridin-2-yl)ethenyl]-1H-indazole]
- % remain (HLM, 2 h) [2]: 59%

SMILES: CC(=O)Nc1cccc(Sc2ccc3c(/C=C/c4ccccc4)n[nH]c3c2)c1 [Example 20(a), 6-(3-Acetamido-phenylsulfanyl)-3-styryl-1H-indazole]
- % remain (HLM, 2 h) [2]: 52%

SMILES: O=C(Nc1cccc(C(=O)c2ccc3c(/C=C/c4ccccn4)n[nH]c3c2)c1)c1ccncc1 [Example 41(b), 6-[3-(Pyridin-4-ylcarboxamido)benzoyl]-3-E-[2-(pyridin-2-yl)ethenyl]-1H-indazole]
- Ki [4]: 0.26 nM
- plasma half-life (T1/2) [1, 10]: 4.7 h
- AUClast [1, 11]: 759 ng·h/mL
- plasma half-life (T1/2) [1, 11]: 1.1 h
- AUC(0-t) ([1]; female, IP, 25 mg/kg, vehicle PEG400:H2O pH 2.3 60:40): > 5870 ng·h/mL
- Cmax ([1]; female, IP, 25 mg/kg, vehicle PEG400:H2O pH 2.3 60:40, read-out: Cmax): > 1000 ng/mL
- concentration at 7 h [1, 12]: 412 ng/mL
- concentration at 7 h [1, 13]: 6 ng/mL

SMILES: CCn1nc(C)cc1C(=O)Nc1cccc(Oc2ccc3c(/C=C/c4c[nH]c(C)n4)n[nH]c3c2)c1 [Example 32(c), 6-[3-((1-Ethyl-3-methyl-1H-pyrazol-5-yl)carboxamido)phenoxy]-3-E-[2-(2-methylimidazol-4-yl)ethenyl]-1H-indazole]
- Ki [4]: 0.27 nM
- AUClast [1, 5]: 388 ng·h/mL
- Cmax [1, 5]: 161 ng/mL
- plasma half-life (T1/2) [1, 5]: 2.4 h
- concentration at 7 h [1, 6]: 10 ng/mL

SMILES: CNC(=O)c1ccccc1Nc1ccc2c(/C=C/c3ccccn3)n[nH]c2c1 [Example 39(a), 6-[2-(Methylcarbamoyl)phenylamino]-3-E-[2-(pyridin-2-yl)ethenyl]-1H-indazole]
- IC50 ([3]; read-out: HUVEC IC50): 1.4 nM
- inhibition at 0.05 µM [4]: 53%
- plasma half-life (T1/2) [1, 5]: 1.4 h
- AUC(0-t) [1, 14]: > 14800 ng·h/mL
- Cmax ([1]; female, PO, 25 mg/kg, vehicle PEG400:H2O pH 2.3 30:70, read-out: Cmax): > 4000 ng/mL
- concentration at 7 h [1, 6]: 219 ng/mL

SMILES: O=C(NOCc1ccccc1)c1ccccc1Sc1ccc2c(/C=C/c3ccccn3)n[nH]c2c1 [Example 35(i), 6-[2-(Benzyloxycarbamoyl)phenylsulfanyl]-3-E-[2-(pyridin-2-yl)ethenyl]-1H-indazole]
- IC50 [3, 7]: 4.7 nM
- inhibition at 0.05 µM [4]: 100%

SMILES: CCONC(=O)c1cccc(F)c1Sc1ccc2c(/C=C/c3ccccn3)n[nH]c2c1 [Example 37(a), 6-[6-Fluoro-2-(ethoxycarbamoyl)phenylsulfanyl]-3-E-[2-(pyridin-2-yl)ethenyl]-1H-indazole]
- % remain (HLM, 2 h) [2]: 21%

SMILES: O=C(Nc1cccc(Oc2ccc3c(/C=C/c4ccccc4)n[nH]c3c2)c1)c1ccccc1 [Example 4(a), N-[3-(3-Styryl-1H-indazol-6-yloxy)-phenyl]-benzamide]
- % remain (HLM, 2 h) [2]: 35%

SMILES: Cc1cc(C(=O)Nc2cccc(Oc3ccc4c(/C=C/c5ccccn5)n[nH]c4c3)c2)nn1C [Example 31(b), 6-[3-((1,5-Dimethyl-1H-pyrazol-3-yl)carboxamido)phenoxy]-3-E-[2-(pyridin-2-yl)ethenyl]-1H-indazole]
- Ki [4]: < 0.1 nM
- plasma half-life (T1/2) [1, 8]: 1.7 h
- AUClast [1, 15]: 2071 ng·h/mL
- plasma half-life (T1/2) [1, 15]: 1.0 h
- AUC(0-t) [1, 16]: > 7040 ng·h/mL
- concentration at 7 h [1, 9]: 177 ng/mL
- concentration at 7 h [1, 17]: 15 ng/mL

SMILES: O=C(Nc1cccc(Oc2ccc3c(/C=C/c4ccccc4)n[nH]c3c2)c1)c1cccc2[nH]ccc12 [Example 30(d), 6-[3-(indol-4-ylcarboxamido)phenoxy]-3-E-stryrylindazole]
- Ki [4]: 0.37 nM

SMILES: C=CCNC(=O)c1ccccc1Sc1ccc2c(/C=C/c3ccccn3)n[nH]c2c1 [Example 35(u), 6-[2-(Allylcarbamoyl)phenylsulfanyl]-3-E-[2-(pyridin-2-yl)ethenyl]-1H-indazole]
- % remain (HLM, 2 h) [2]: 27%

SMILES: O=C(NCc1ccccc1F)c1ccccc1Sc1ccc2c(/C=C/c3ccccn3)n[nH]c2c1 [Example 35(f)]
- % remain (HLM, 2 h) [2]: 15%

SMILES: O=C(Nc1cccc(Oc2ccc3c(/C=C/c4c[nH]cn4)n[nH]c3c2)c1)c1ccccc1 [Example 32(a), 6-[3-Benzamidophenoxy]-3-E-[2-(1H-imidazol-4-yl)ethenyl]-1H-indazole]
- Ki [4]: < 0.1 nM
- AUClast [1, 15]: 4190 ng·h/mL
- AUC(0-t) [1, 16]: > 20600 ng·h/mL
- concentration at 7 h [1, 9]: 1270 ng/mL
- AUC(0-t) [1, 14]: 490 ng·h/mL
- concentration at 7 h [1, 6]: 18 ng/mL
- concentration at 7 h [1, 17]: 40 ng/mL

SMILES: Cn1nc(C(C)(C)C)cc1C(=O)Nc1cccc(C(=O)c2ccc3c(/C=C/c4ccccn4)n[nH]c3c2)c1 [Example 41(n), 6-[3-((3-t-Butyl-1-methyl-1H-pyrazol-5-yl)carboxamido)benzoyl]-3-E-[2-(pyridin-2-yl)ethenyl]-1H-indazole]
- Ki [4]: 0.2 nM
- AUClast [1, 8]: 9408 ng·h/mL
- Cmax [1, 8]: 1976 ng/mL
- plasma half-life (T1/2) [1, 8]: 3.2 h
- AUClast [1, 15]: 9066 ng·h/mL
- Cmax [1, 15]: 2245 ng/mL
- plasma half-life (T1/2) [1, 15]: 1.9 h
- concentration at 7 h [1, 9]: 465 ng/mL
- concentration at 7 h [1, 17]: 253 ng/mL

SMILES: CCn1nc(C)cc1C(=O)Nc1cccc(Oc2ccc3c(/C=C/c4c[nH]cn4)n[nH]c3c2)c1 [Example 32(b), 6-[3-((1-Ethyl-3-methyl-1H-pyrazol-5-yl)carboxamido)phenoxy]-3-E-[2-(1H-imidazol-4-yl)ethenyl]-1H-indazole]
- Ki [4]: 0.08 nM

SMILES: O=C(Nc1cccc(C(=O)c2ccc3c(-c4nc5cccnc5[nH]4)n[nH]c3c2)c1)c1ccccc1 [Example 42(d), 6-(3-Benzaniidobenzoyl)-3-(3H-imidazo[4,5-b]pyridin-2-yl)-1H-indazole]
- Ki [4]: 1.7 nM
- AUClast [1, 10]: 1774 ng·h/mL
- plasma half-life (T1/2) [1, 10]: 1.4 h
- AUClast [1, 11]: 46 ng·h/mL
- plasma half-life (T1/2) [1, 11]: BLQ
- concentration at 7 h [1, 12]: 31 ng/mL
- concentration at 7 h [1, 13]: 18 ng/mL

SMILES: NNC(=O)c1ccccc1Sc1ccc2c(/C=C/c3ccccn3)n[nH]c2c1 [Example 35(ii), 6-[2-(Aminocarbamoyl)phenylsulfanyl]-3-E-[2-(pyridin-2-yl)ethenyl]-1H-indazole]
- inhibition at 0.05 µM [4]: 44%

SMILES: Cc1cnc(C(=O)Nc2cccc(Oc3ccc4c(/C=C/c5ccccc5)n[nH]c4c3)c2)s1 [Example 5(a), 5-Methyl-thiazole-2-carboxylic Acid {3-(3-Styryl-1H-indazol-6-yloxy)-phenyl]-amide]
- Ki [4]: 0.03 nM
